Experiments:
[1] = target: T1, Free fatty acid receptor 1 (Homo sapiens, UniProt O14842); experiment: Agonist activity at human FFA1 expressed in CHO cells by Fluo4-AM dye based intracellular calcium flux assay; format: functional, cell-based
[2] = target: T1, Free fatty acid receptor 1; experiment: Agonist activity at human FFA1 stably expressed in CHO cells at 300 nM by Fluo4-AM dye based intracellular calcium flux FLIPR assay relative to control; format: functional, cell-based
[3] = target: T1, Free fatty acid receptor 1; experiment: Agonist activity at human […] expressed in HEK293 cells incubated for 40 mins by Fluo4-AM dye based intracellular calcium flux assay; format: functional, cell-based
[4] = target: T2, Peroxisome proliferator-activated receptor gamma (Homo sapiens) (UniProt P37231); experiment: Agonist activity at PPARgamma (unknown origin) assessed as fold increase in calcium by Fluo4-AM dye based intracellular calcium flux assay; format: cell-based; conditions: filed as agonist
T2 sequence (whole entry): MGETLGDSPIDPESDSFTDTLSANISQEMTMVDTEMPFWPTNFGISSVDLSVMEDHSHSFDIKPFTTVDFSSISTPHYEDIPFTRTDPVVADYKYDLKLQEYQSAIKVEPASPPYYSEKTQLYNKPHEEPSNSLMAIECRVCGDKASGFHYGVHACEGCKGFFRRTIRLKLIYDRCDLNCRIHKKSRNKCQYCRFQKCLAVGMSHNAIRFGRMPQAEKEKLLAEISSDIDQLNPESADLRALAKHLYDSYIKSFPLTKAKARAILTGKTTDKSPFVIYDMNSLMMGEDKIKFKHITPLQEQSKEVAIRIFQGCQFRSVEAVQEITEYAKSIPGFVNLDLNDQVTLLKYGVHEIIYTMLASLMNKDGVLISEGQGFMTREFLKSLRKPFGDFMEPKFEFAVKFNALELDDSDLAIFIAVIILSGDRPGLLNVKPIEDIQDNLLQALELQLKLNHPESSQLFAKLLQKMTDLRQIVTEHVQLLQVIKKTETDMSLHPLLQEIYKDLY

[5] = target: T1, Free fatty acid receptor 1; experiment: Agonist activity at human recombinant GPR40 stably expressed in HEK293 cells at 0.1 uM incubated for 24 hrs by FLIPR assay relative to control; format: functional, cell-based
[6] = target: GPR40-Galpha16 (Homo sapiens, UniProt O14842+P30679); experiment: Agonist activity at human GPR40/Galpha-16 expressed in HEK293 cells by Fluo4-AM dye based intracellular calcium flux assay
[7] = target: T1, Free fatty acid receptor 1; experiment: Agonist activity at human GPR40 expressed in HEK293 cells by Fluo4-AM dye based intracellular calcium flux assay; format: functional, cell-based
[8] = target: T1, Free fatty acid receptor 1; experiment: Agonist activity at human recombinant GPR40 expressed in CHO cells by Fluo4-AM dye based intracellular calcium flux assay relative to control; format: functional, cell-based
[9] = target: T1, Free fatty acid receptor 1; experiment: Agonist activity at human recombinant FFA1 stably expressed in CHO cells assessed as increase in calcium flux by Fluo4-AM dye based FLIPR assay; format: functional, cell-based
[10] = target: T1, Free fatty acid receptor 1; experiment: Agonist activity at human GPR40 stably expressed in CHO cells assessed as increase in intracellular calcium concentration by FLIPR assay; format: functional, cell-based

T1 sequence (O14842 whole entry): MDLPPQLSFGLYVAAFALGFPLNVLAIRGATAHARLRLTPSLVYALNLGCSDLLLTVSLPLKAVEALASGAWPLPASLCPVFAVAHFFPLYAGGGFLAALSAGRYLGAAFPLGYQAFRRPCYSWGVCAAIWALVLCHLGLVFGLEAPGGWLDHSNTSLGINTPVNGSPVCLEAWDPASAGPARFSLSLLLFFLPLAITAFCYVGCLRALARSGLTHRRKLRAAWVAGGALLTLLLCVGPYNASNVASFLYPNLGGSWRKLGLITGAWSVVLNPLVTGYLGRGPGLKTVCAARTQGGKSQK
Sequence of GPR40-Galpha16 (O14842 whole entry): as above
Sequence of GPR40-Galpha16 (P30679 whole entry): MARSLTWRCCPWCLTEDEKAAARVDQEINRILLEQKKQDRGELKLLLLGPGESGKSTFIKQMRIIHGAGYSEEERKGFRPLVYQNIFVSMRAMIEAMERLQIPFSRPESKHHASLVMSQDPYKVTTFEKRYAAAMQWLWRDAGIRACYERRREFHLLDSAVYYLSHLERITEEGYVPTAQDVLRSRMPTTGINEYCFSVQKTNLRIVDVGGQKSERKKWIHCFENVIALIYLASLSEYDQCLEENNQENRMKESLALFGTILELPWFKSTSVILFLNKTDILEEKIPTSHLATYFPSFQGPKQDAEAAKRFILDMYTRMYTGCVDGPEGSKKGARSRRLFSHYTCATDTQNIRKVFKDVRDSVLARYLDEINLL

For `[2H]C([2H])(Cc1ccc(OCc2cccc(-c3ccccc3C)c2)cc1)C(=O)O`, the EC50 [1] was 0.0191 µM.
For `O=C(O)CC1COc2cc(OCc3cccc(OCc4ccccc4)c3)ccc21` (configuration not stated), the Activity [2] was 23.5%.
In the case of `O=C(O)CCc1ccc(OCc2ccc3ccccc3n2)cc1`, the EC50 [3] is reported as 100 µM.
For `COc1ccc2[nH]c(SCC(=O)Nc3ccc(OCC(=O)O)cc3)nc2c1`, the fold change (FC) [4] was 2.
For `Cc1ccc(S(=O)(=O)Nc2cccc(COc3ccc4c(c3)OCC4CC(=O)O)c2)cc1` (configuration not stated), the Activity [2] was 23.7%.
Molecule `Cc1cc(O[C@H]2CCOC2)cc(C)c1-c1cccc2c1CC[C@H]2Oc1ccc(OCC(=O)O)cc1` has an Activity ([5]; filed as agonist) of 47%.
`Cc1ccc(O[C@H]2CCOC2)cc1-c1cc(COc2ccc(OCC(=O)O)cc2)cc2c1CCC2` gave an Activity ([5]; filed as agonist) of 133%.
`O=C(O)CCc1ccc(NCc2cccc(Oc3ccccc3)c2)cc1` [GW9508] showed an EC50 [6] of 0.048 µM.
`CC(C)(CCCCCCCCCCC(C)(C)CC(=O)O)CC(=O)O` gave an EC50 [7] of 1.22 µM.
Work on `[2H]C([2H])(Cc1ccc(OCc2cccc(-c3c(C)cccc3C)c2)cc1)C(=O)O` yielded an EC50 [1] of 0.0427 µM.
`O=C(O)C[C@@H](c1ccc(O[C@@H]2CCc3c2ccc(C(F)(F)F)c3CN2CCCCC2)cc1)c1ccon1` gave an Activity [8] of 16.5%.
`O=C(O)C[C@@H](c1ccc(O[C@@H]2CCc3c2ccc(C(F)(F)F)c3CN2CCCCCC2)cc1)c1ccon1` gave an Activity ([8]; filed as agonist) of 48.2%.
`O=C(O)COc1ccc(NC(=O)CSc2nc3ccccc3[nH]2)cc1` showed a fold change (FC) [4] of 2.
`Cc1ccc(O[C@H]2CCOC2)cc1-c1cccc2c1CC[C@H]2Oc1ccc(OCC(=O)O)cc1` showed an Activity ([5]; filed as agonist) of 51.7%.
`Cc1ccccc1-c1cccc(COc2ccc(OCC(=O)O)c(F)c2)c1` showed an EC50 [9] of 1.39 µM.
With `Cc1cccc(C(=O)Nc2ccc(CC(=O)O)cc2)c1` the EC50 [10] was 13.2 µM.
With `CC1CCN(Cc2c(C(F)(F)F)ccc3c2CC[C@H]3Oc2ccc([C@H](CC(=O)O)c3ccon3)cc2)CC1` the Activity ([8]; filed as agonist) was 55.1%.
In the case of `[2H]C([2H])(Cc1ccc(OCc2cccc(-c3c(C)cc(OCCCS(C)(=O)=O)cc3C)c2)cc1)C(=O)O`, the EC50 [1] is reported as 0.0722 µM.
`O=C(O)CC1COc2cc(OCc3cccc(NC(=O)c4coc5ccccc45)c3)ccc21` (configuration not stated) showed an Activity ([2]; filed as agonist) of 50.4%.
`O=C(O)CC1COc2cc(OCc3cccc(O/C=C/Oc4ccccc4)c3)ccc21` (configuration not stated) showed an Activity ([2]; filed as agonist) of 52.7%.
`Cc1ccc(O[C@H]2CCOC2)cc1-c1cc(COc2ccc(OCC(=O)O)cc2)cc2c1OCC2` showed an Activity [5] of 1.8%.
`O=C(O)C[C@@H](c1ccc(O[C@@H]2CCc3c2ccc(C(F)(F)F)c3CN2CCC(F)CC2)cc1)c1ccon1` gave an Activity ([8]; filed as agonist) of 45.2%.

Reference: ChEMBL document CHEMBL5528007, “Synthetic GPR40/FFAR1 agonists: An exhaustive survey on the most recent chemical classes and their structure-activity relationships” (Eur J Med Chem, 2024)
